The results in this text go back to US12679878B2, “CRF2 receptor agonists and their use in therapy” (SANOFI, priority 2020, dated 2026).

Like-named read-outs stand apart in the source and are kept apart here. Starred links: 1 amine or outer side, 2 acyl side, 3 side chain; linkers in the order of their positions; H or OH if unused. Non-standard residues stand in square brackets, D forms with d. Residues, ends and D or L forms follow the SMILES beside them. Groups on a side chain read outwards from the residue. *: point of attachment. C18 diacid = O=C(O)CCCCCCCCCCCCCCCCC(=O)*; γGlu = O=C(O)[C@H](CCC(=O)[*:2])N[*:1]; Palmitoyl = CCCCCCCCCCCCCCCC(=O)*; AEEA = NCCOCCOCC(=O)O; Aib = CC(C)(N)C(=O)O

Data set [1] has as its target T1, human CRF2α receptor (Homo sapiens, UniProt Q13324).
T1 construct: expressed in transfected cells; host or cells: TeloHEAC
T1 sequence (Q13324 1-411): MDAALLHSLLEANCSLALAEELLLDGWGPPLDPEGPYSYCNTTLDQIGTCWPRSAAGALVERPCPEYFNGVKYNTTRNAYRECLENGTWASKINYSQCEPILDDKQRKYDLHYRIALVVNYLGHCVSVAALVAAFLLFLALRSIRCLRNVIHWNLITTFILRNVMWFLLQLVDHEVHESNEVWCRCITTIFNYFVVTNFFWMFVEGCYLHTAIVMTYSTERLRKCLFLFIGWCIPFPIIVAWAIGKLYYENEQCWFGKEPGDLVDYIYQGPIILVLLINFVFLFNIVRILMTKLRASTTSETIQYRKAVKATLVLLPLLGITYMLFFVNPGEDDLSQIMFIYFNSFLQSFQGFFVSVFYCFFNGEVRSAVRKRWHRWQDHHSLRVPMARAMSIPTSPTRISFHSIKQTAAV
In words: cAMP agonism at human CRF2 α receptor in TeloHEAC cells (Example 7). Format: cell-based. The note with it: cAMP HTRF, TeloHEAC cells stably expressing human CRF2 α. Summed up:
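Steps: thaw and wash cells; suspend in 1×HBSS, 20 mM HEPES, 0 or 0.1% HSA, 2 mM IBMX; add compound, 30 min RT; lyse with HTRF reagents, 1 h; read 665/620 nm. EC50 calculated, E% versus 1000 nM UCN2.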

Data set [2] addresses T2, CRF1R receptor (Homo sapiens, UniProt P34998).
T2 construct: host or cells: CHO-K1 clone 2
T2 sequence (P34998 24-415): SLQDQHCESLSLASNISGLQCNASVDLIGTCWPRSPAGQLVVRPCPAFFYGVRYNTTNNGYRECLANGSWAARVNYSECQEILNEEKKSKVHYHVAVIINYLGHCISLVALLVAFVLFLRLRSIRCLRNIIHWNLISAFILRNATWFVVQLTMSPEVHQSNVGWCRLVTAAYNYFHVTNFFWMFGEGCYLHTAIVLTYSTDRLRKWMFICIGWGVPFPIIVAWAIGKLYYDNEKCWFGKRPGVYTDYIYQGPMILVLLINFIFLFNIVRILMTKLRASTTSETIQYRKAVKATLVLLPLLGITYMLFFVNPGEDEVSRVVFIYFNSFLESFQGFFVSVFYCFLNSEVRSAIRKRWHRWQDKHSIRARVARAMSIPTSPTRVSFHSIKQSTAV
In words: cAMP activity at anti-target CRF1R, CRF1R-overexpression CHO cell line (Example 9). In kind it is cell-based. The following applies: CRF1R-overexpression CHO cell line; for EC50: 0% HSA; for Emax: read-out: Emax (%). Summed up: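 Using thawed CRF1R-overexpressing CHO cells at 2000 per well, compound is applied for 30 min at RT in HBSS/HEPES buffer with IBMX. Cellular cAMP content is determined via HTRF, and percent activity is calculated against 1000 nM UCN2 defined as 100%.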

The nature of data set [3]: Solubility in buffer systems by UPLC-UV (Example 13). In kind it is physicochemical. The note with it: pH 4.5, Solubility in Buffer B [mg/ml]. Summed up: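 Quantitation used UV peak area from UPLC of the 1:10-diluted supernatant, set against a reference-compound standard curve with extinction coefficients adjusted for amino acid sequence.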
A short description of data set [4]: Physical stability, Thioflavin T fibrillation assay (Example 14). Format: physicochemical. The following applies: 3 mg/ml, 37° C. shaking. The protocol:
The physical stability of the compounds was assessed using a Thioflavin T (ThT) assay.
The time course for fibril formation often follows the characteristic shape of a sigmoidal curve and can be separated into three regions: a lag phase, a fast growth phase, and a plateau phase. The typical fibril formation process starts with the lag phase in which the amount of partially folded peptide turned into fibrils is not significant enough to be detected. The lag-time corresponds to the time the critical mass of the nucleus is built. Afterwards, a drastic elongation phase follows and fibril concentration increases rapidly. Therefore, by measuring the increase in fluorescence intensity attributable to ThT as well as the lag time of the increase, the fibrillation tendency of a peptide can be determined, thereby providing a measure of the physical stability of the peptide.
In the present study, test compounds were diluted in buffer to a final concentration of 3 mg/ml.
The fibrillation tendencies of the peptides were determined under stress using a Fluoroskan Ascent FL or Fluoroskan Ascent fluorometer. […] Plates were sealed with Scotch Tape (Quiagen). Samples were stressed by continuous cycles of 10 s shaking at 960 rpm and 50 s rest period at 37° C. Fibril development was monitored by measuring fluorescence intensity every 20 minutes. For each sample, eight replicates were tested.

In data set [5] the test system is rat CRF2R α receptor. Briefly: cAMP agonism at rat CRF2R α receptor in A7R5 rat aortic smooth muscle cells (Example 8). In kind it is cell-based. The note with it: cAMP HTRF, A7R5 rat aortic smooth muscle cell line, 0% HSA. In short, it runs like this: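 Potency (EC50) is the concentration reaching half-maximal activation, with responses scaled so that 1000 nM urocortin 2 equals 100%. Intracellular cAMP was quantified by homogeneous time-resolved fluorescence at 665/620 nm, 1 h after lysis-buffer reagents. Compound stimulation lasted 30 min at room temperature on 2000 IBMX-treated (2 mM) cells per well in HEPES-buffered HBSS.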

Setting [6] is: 0% HSA, read-out: EC50 [nM], 0% HSA.
[7] abbreviates: Buffer A: 100 mM acetate buffer, pH 4.5.
The mark [8] stands for this setting: 0.1% HSA, read-out: EC50 [nM], 0.1% HSA.
Setting [9] is: Buffer B: 100 mM acetate buffer, pH 4.5, 2.7 mg/ml m-cresol.

Consider `CCCCCCCCCCCCCCCC(=O)N[C@@H](CCC(=O)NCCCC[C@H](NC(=O)[C@H](CC(C)C)NC(=O)CNC(=O)[C@@H](NC(=O)[C@@H]1CCCN1C(=O)[C@@H](NC(=O)[C@H](CC(=O)O)NC(=O)[C@H](CC(C)C)NC(=O)[C@H](CO)NC(=O)[C@H](CC(C)C)NC(=O)[C@@H](NC(=O)[C@@H](N)[C@@H](C)CC)C(C)C)C(C)C)[C@@H](C)CC)C(=O)N[C@@H](CCC(N)=O)C(=O)N[C@@H](CCCCN)C(=O)N[C@@H](CC(C)C)C(=O)N[C@@H](CC(C)C)C(=O)N[C@@H](CCCCN)C(=O)N[C@@H](CCC(N)=O)C(=O)N[C@@H](CCC(=O)O)C(=O)N[C@@H](CCCCN)C(=O)N[C@@H](CCC(N)=O)C(=O)N[C@@H](CCC(=O)O)C(=O)N[C@@H](CCCCN)C(=O)N[C@@H](CCC(=O)O)C(=O)N[C@@H](CCCCN)C(=O)N[C@@H](CCC(N)=O)C(=O)N[C@@H](CCC(N)=O)C(=O)N[C@@H](C)C(=O)N[C@@H](CCC(=O)O)C(=O)N[C@H](C(=O)N[C@@H](CC(N)=O)C(=O)N[C@@H](C)C(=O)N[C@@H](CCCCN)C(=O)N[C@H](C(=O)N[C@@H](CC(C)C)C(=O)N[C@@H](C)C(=O)N[C@@H](CCC(N)=O)C(=O)N[C@H](C(N)=O)C(C)C)[C@@H](C)CC)[C@@H](C)O)C(=O)O` [compound 4] (H-IVLSLDVPIGLK([γGlu-Palmitoyl])QKLLKQEKQEKEKQQAETNAKILAQV-NH2; N-terminus assumed), for which the EC50 in data set [1] (setting [6]) amounted to 0.04 nM. In addition, in data set [2], the concentration for a half-maximal effect (EC50) is over 1000 nM and the maximum response (Emax) stood at 17.4%. Also, in data set [3], the solubility at 1 h is over 9600 µg/mL. Moreover, in data set [4] (setting [7]), the “Increase in FI (fluorescence intensity)” value is given as “Yes” and the “Lag time” value is reported as 18 h.
As for `CC[C@H](C)[C@H](N)C(=O)N[C@H](C(=O)N[C@@H](CC(C)C)C(=O)N[C@@H](CO)C(=O)N[C@@H](CC(C)C)C(=O)N[C@@H](CC(=O)O)C(=O)N[C@@H](C(=O)N1CCC[C@H]1C(=O)N[C@H](C(=O)NCC(=O)N[C@@H](CC(C)C)C(=O)N[C@@H](CCCCNC(=O)COCCOCCNC(=O)COCCOCCNC(=O)CC[C@H](NC(=O)CCCCCCCCCCCCCCCCC(=O)O)C(=O)O)C(=O)N[C@@H](CCC(N)=O)C(=O)N[C@H](C(=O)N[C@@H](CC(C)C)C(=O)N[C@@H](CC(C)C)C(=O)N[C@@H](CCCCN)C(=O)N[C@@H](CCC(N)=O)C(=O)N[C@@H](CCC(=O)O)C(=O)N[C@@H](CCCNC(=N)N)C(=O)N[C@@H](CCC(N)=O)C(=O)N[C@@H](CCCCN)C(=O)N[C@@H](CCCCN)C(=O)NC(C)(C)C(=O)N[C@@H](CCCNC(=N)N)C(=O)N[C@@H](CCC(=O)O)C(=O)N[C@@H](CCC(N)=O)C(=O)N[C@@H](C)C(=O)N[C@@H](CCC(=O)O)C(=O)N[C@H](C(=O)N[C@@H](CC(N)=O)C(=O)N[C@@H](CCCCN)C(=O)N[C@@H](CCCNC(=N)N)C(=O)N[C@H](C(=O)N[C@@H](CC(C)C)C(=O)N[C@@H](CCC(=O)O)C(=O)N[C@@H](CCCNC(=N)N)C(=O)N[C@H](C(N)=O)C(C)C)[C@@H](C)CC)[C@@H](C)O)[C@@H](C)CC)[C@@H](C)CC)C(C)C)C(C)C` [compound 83] (H-IVLSLD[dV]PIGLK([AEEA-AEEA-γGlu-C18 diacid])QILLKQERQKK[Aib]REQAETNKRILERV-NH2; N-terminus assumed), the EC50 in data set [1] (setting [6]) was 0.07 nM; in data set [1] (setting [8]), 2.99 nM; in data set [5] it was 1.83 nM; in data set [2], over 1000 nM. Besides, the Emax in data set [2] was found to be 7.51%. Moreover, the “Increase in FI (fluorescence intensity)” value in data set [4] (setting [9]) is reported as “No”. For the same compound, in data set [4] (setting [9]), the “Lag time” value is recorded as over 45 h.
For `CC[C@H](C)[C@H](N)C(=O)N[C@H](C(=O)N[C@@H](CC(C)C)C(=O)N[C@@H](CO)C(=O)N[C@@H](CC(C)C)C(=O)N[C@@H](CC(=O)O)C(=O)N[C@@H](C(=O)N1CCC[C@H]1C(=O)N[C@H](C(=O)N[C@@H](CCCCN)C(=O)N[C@@H](CC(C)C)C(=O)N[C@@H](CCCCNC(=O)COCCOCCNC(=O)COCCOCCNC(=O)CC[C@H](NC(=O)CCCCCCCCCCCCCCCCC(=O)O)C(=O)O)C(=O)N[C@@H](CCC(N)=O)C(=O)N[C@H](C(=O)N[C@@H](CC(C)C)C(=O)N[C@@H](CC(C)C)C(=O)N[C@@H](CCC(=O)O)C(=O)N[C@@H](CCC(N)=O)C(=O)N[C@@H](CCC(=O)O)C(=O)N[C@@H](CCCNC(=N)N)C(=O)N[C@@H](CCC(N)=O)C(=O)N[C@@H](CCCCN)C(=O)NC(C)(C)C(=O)N[C@@H](CCC(N)=O)C(=O)N[C@@H](CCCNC(=N)N)C(=O)N[C@@H](CCC(=O)O)C(=O)N[C@@H](CCC(N)=O)C(=O)N[C@@H](C)C(=O)N[C@@H](CCC(=O)O)C(=O)N[C@@H](CCCCN)C(=O)N[C@@H](CC(N)=O)C(=O)N[C@@H](CCCCN)C(=O)N[C@@H](CCC(N)=O)C(=O)N[C@H](C(=O)N[C@@H](CC(C)C)C(=O)N[C@@H](CCC(=O)O)C(=O)N[C@@H](CCCNC(=N)N)C(=O)N[C@H](C(N)=O)C(C)C)[C@@H](C)CC)[C@@H](C)CC)[C@@H](C)CC)C(C)C)C(C)C` [compound 132] (H-IVLSLD[dV]PIKLK([AEEA-AEEA-γGlu-C18 diacid])QILLEQERQK[Aib]QREQAEKNKQILERV-NH2), the concentration giving a half-maximal response (EC50) in data set [1] (setting [6]) is 0.38 nM; in data set [1] (setting [8]), 8.76 nM; in data set [5], 0.79 nM; in data set [2], over 1000 nM. Also, the maximum response (Emax) in data set [2] amounted to 36.9%. In addition, the “Increase in FI (fluorescence intensity)” value in data set [4] (setting [9]) is given as “No”. For the same compound, the “Lag time” value in data set [4] (setting [9]) is given as over 45 h.
